Test results reported in patent US20220356174A1, “PYRIDIN-2-ONE COMPOUNDS USEFUL AS SMARCA2 ANTAGONISTS” (Epizyme, Inc., priority 2018, published 2022).

What follows are compounds tested against FL-SMARCA4 (Homo sapiens, UniProt P51532) (assay: SMARCA4 ATPase activity assay (ADP-Glo, chicken mononucleosome substrate)). Details: FL-SMARCA4 IC>50, Table 3c.2; ATPase assay, enzyme 5 nM, ATP 250 uM, chicken mononucleosome 10 nM, 30 min preincubation.
Chain of FL-SMARCA4 (P51532 whole entry): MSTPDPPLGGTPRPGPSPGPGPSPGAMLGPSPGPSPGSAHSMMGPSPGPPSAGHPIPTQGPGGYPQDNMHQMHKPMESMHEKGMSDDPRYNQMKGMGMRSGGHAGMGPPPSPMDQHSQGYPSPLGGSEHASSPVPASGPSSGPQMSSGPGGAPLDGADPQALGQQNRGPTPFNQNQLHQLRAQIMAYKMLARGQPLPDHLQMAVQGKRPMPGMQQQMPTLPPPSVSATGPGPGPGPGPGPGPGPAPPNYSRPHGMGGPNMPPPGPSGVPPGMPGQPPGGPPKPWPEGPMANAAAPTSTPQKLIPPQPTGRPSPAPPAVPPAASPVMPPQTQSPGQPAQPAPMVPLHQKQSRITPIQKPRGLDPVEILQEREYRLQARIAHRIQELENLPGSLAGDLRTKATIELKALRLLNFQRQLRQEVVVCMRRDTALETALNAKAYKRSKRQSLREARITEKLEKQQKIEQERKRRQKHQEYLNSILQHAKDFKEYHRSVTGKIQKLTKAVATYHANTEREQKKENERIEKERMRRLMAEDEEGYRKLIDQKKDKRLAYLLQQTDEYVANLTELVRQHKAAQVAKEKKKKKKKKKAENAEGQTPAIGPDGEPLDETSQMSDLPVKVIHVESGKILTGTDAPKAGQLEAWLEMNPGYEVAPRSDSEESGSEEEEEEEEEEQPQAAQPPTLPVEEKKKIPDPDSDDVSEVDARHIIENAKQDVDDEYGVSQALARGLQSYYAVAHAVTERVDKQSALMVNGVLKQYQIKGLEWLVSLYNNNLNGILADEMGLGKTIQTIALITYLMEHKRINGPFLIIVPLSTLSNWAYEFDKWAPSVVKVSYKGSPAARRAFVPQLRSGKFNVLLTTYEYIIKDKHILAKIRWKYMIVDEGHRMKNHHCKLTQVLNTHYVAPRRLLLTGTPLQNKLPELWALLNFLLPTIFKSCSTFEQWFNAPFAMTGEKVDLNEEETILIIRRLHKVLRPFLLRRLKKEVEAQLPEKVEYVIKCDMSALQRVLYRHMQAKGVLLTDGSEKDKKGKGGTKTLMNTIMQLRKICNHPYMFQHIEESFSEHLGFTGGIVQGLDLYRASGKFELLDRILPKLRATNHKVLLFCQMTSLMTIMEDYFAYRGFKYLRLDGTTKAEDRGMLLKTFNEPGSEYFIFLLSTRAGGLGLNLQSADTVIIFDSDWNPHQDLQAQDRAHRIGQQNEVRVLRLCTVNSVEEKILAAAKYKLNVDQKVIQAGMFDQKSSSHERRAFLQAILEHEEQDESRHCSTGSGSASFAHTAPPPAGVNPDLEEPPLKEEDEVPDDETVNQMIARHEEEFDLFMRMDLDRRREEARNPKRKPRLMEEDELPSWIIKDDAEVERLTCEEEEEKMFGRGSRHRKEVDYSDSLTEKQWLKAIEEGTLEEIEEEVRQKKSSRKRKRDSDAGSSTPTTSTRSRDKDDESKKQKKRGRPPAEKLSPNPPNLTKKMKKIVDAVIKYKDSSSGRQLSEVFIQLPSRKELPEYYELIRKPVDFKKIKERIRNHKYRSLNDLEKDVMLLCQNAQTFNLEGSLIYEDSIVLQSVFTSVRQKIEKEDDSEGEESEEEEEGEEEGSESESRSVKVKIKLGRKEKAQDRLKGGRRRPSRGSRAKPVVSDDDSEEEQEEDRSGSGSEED

Row | Compound | IC50 [nM]
1 | Cc1cc(C#Cc2cc(C(=O)Nc3cc(F)c(=O)n(CC(F)F)c3)sc2Cl)on1 [Compound 63c] | 100
2 | Cc1cnc(C#Cc2cc(C(=O)Nc3cc(F)c(=O)n(CC(F)F)c3)sc2Cl)s1 [Compound 70c] | 385
3 | N#Cc1ccc(C#Cc2cc(C(=O)Nc3cc(F)c(=O)n(CC(F)F)c3)sc2Cl)cc1 [Compound 43c] | 329
4 | N#Cc1cc(C#Cc2cc(C(=O)Nc3cc(F)c(=O)n(CC(F)F)c3)sc2Cl)ccn1 [Compound 151c] | 111
5 | O=C(Nc1cc(F)c(=O)n(CC(F)F)c1)c1cc(C#Cc2cccnn2)c(Cl)s1 [Compound 55c] | 269
6 | Cc1sc(C(=O)Nc2cc(F)c(=O)n(CC(F)F)c2)cc1C#CC1COC1 [Compound 92c] | 346
7 | NC(=O)c1nc(C#Cc2cc(C(=O)Nc3cc(F)c(=O)n(CC(F)F)c3)sc2Cl)cs1 [Compound 111c] | 26.5
8 | CN(C)Cc1ncc(C#Cc2cc(C(=O)Nc3cc(F)c(=O)n(CC(F)F)c3)sc2Cl)n1C [Compound 148c] | 432
9 | O=C1Cc2ccc(C#Cc3cc(C(=O)Nc4cc(F)c(=O)n(CC(F)F)c4)sc3Cl)cc2N1 [Compound 140c] | 63.3
10 | O=C1Cc2c(C#Cc3cc(C(=O)Nc4cc(F)c(=O)n(CC(F)F)c4)sc3Cl)cccc2N1 [Compound 142c] | 119
11 | O=C(Nc1cc(F)c(=O)n(CC(F)F)c1)c1cc(C#Cc2cn[nH]c2)c(Cl)s1 [Compound 83c] | 62.9
12 | O=C(Nc1cc(F)c(=O)n(CC(F)F)c1)c1cc(C#Cc2ccc3c(c2)C(=O)NC3)c(Cl)s1 [Compound 145c] | 208
13 | Cn1cnc(C#Cc2cc(C(=O)Nc3cc(F)c(=O)n(CC(F)F)c3)sc2Cl)c1 [Compound 60c] | 492
14 | O=C(Nc1cc(F)c(=O)n(CC(F)F)c1)c1cc(C#C[C@@H]2CCOC2)c(Cl)s1 [Compound 79c] | 143
15 | O=C(Nc1cc(F)c(=O)n(CC(F)F)c1)c1cc(C#Cc2ccc(Cl)cc2)c(Cl)s1 [Compound 35c] | 905
16 | CN(C)CCn1cc(C#Cc2cc(C(=O)Nc3cc(F)c(=O)n(CC(F)F)c3)sc2Cl)cn1 [Compound 123c] | 1070
17 | CN(C)Cc1cc(C#Cc2cc(C(=O)Nc3cc(F)c(=O)n(CC(F)F)c3)sc2Cl)n(C)n1 [Compound 149c] | 16100

Each compound was assayed on H358 cells (assay: High-throughput proliferation (HTP) assay for H358 cells (CellTiter-Glo, 7 days)). Details: Homo sapiens, NCI-H358, 168 h, read-out: H358 SMARCA2 IC50.
Type: cell-based
Summary of the method: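 Cells were plated at 1,000 cells/well in RPMI 1640 + 10% HI-FBS + 1% pen/strep on pre-dispensed compound and incubated 7 days at 37 °C, 5% CO2. Viability was read as ATP luminescence with CellTiter-Glo after 30 min at RT. DMSO served as 0% and 10 µM doxorubicin as 100% inhibition for EC50/IC50.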

Row | Compound | IC50 [nM]
18 | Cc1cc(C#Cc2cc(C(=O)Nc3cc(F)c(=O)n(CC(F)F)c3)sc2Cl)on1 [Compound 63c] | > 10000
19 | Cc1cnc(C#Cc2cc(C(=O)Nc3cc(F)c(=O)n(CC(F)F)c3)sc2Cl)s1 [Compound 70c] | 9160
20 | N#Cc1ccc(C#Cc2cc(C(=O)Nc3cc(F)c(=O)n(CC(F)F)c3)sc2Cl)cc1 [Compound 43c] | > 10000
21 | N#Cc1cc(C#Cc2cc(C(=O)Nc3cc(F)c(=O)n(CC(F)F)c3)sc2Cl)ccn1 [Compound 151c] | 4860
22 | O=C(Nc1cc(F)c(=O)n(CC(F)F)c1)c1cc(C#Cc2cccnn2)c(Cl)s1 [Compound 55c] | > 10000
23 | Cc1sc(C(=O)Nc2cc(F)c(=O)n(CC(F)F)c2)cc1C#CC1COC1 [Compound 92c] | > 10000
24 | NC(=O)c1nc(C#Cc2cc(C(=O)Nc3cc(F)c(=O)n(CC(F)F)c3)sc2Cl)cs1 [Compound 111c] | > 10000
25 | CN(C)Cc1ncc(C#Cc2cc(C(=O)Nc3cc(F)c(=O)n(CC(F)F)c3)sc2Cl)n1C [Compound 148c] | > 10000
26 | O=C1Cc2ccc(C#Cc3cc(C(=O)Nc4cc(F)c(=O)n(CC(F)F)c4)sc3Cl)cc2N1 [Compound 140c] | > 10000
27 | O=C1Cc2c(C#Cc3cc(C(=O)Nc4cc(F)c(=O)n(CC(F)F)c4)sc3Cl)cccc2N1 [Compound 142c] | 4650
28 | O=C(Nc1cc(F)c(=O)n(CC(F)F)c1)c1cc(C#Cc2cn[nH]c2)c(Cl)s1 [Compound 83c] | > 10000
29 | O=C(Nc1cc(F)c(=O)n(CC(F)F)c1)c1cc(C#Cc2ccc3c(c2)C(=O)NC3)c(Cl)s1 [Compound 145c] | > 10000
30 | Cn1cnc(C#Cc2cc(C(=O)Nc3cc(F)c(=O)n(CC(F)F)c3)sc2Cl)c1 [Compound 60c] | > 10000
31 | O=C(Nc1cc(F)c(=O)n(CC(F)F)c1)c1cc(C#C[C@@H]2CCOC2)c(Cl)s1 [Compound 79c] | > 10000
32 | O=C(Nc1cc(F)c(=O)n(CC(F)F)c1)c1cc(C#Cc2ccc(Cl)cc2)c(Cl)s1 [Compound 35c] | 8760
33 | CN(C)CCn1cc(C#Cc2cc(C(=O)Nc3cc(F)c(=O)n(CC(F)F)c3)sc2Cl)cn1 [Compound 123c] | > 10000
34 | CN(C)Cc1cc(C#Cc2cc(C(=O)Nc3cc(F)c(=O)n(CC(F)F)c3)sc2Cl)n(C)n1 [Compound 149c] | > 10000

Each compound was assayed against T1, FL-SMARCA2 (full-length human SMARCA2 isoform 1) (Homo sapiens, UniProt P51531) (assay: SMARCA2 ATPase activity assay (ADP-Glo, chicken mononucleosome substrate)). Details: Table 3c.1; ATPase assay, enzyme 5 nM, ATP 250 uM, chicken mononucleosome 10 nM, 30 min preincubation.
T1 construct: FLAG tag (YKDDDDK) (C); made in house; host or cells: Sf21 insect cells (baculovirus, pFastBacI)
Type: biochemical

T1 sequence (P51531 with tags, fused parts or gaps): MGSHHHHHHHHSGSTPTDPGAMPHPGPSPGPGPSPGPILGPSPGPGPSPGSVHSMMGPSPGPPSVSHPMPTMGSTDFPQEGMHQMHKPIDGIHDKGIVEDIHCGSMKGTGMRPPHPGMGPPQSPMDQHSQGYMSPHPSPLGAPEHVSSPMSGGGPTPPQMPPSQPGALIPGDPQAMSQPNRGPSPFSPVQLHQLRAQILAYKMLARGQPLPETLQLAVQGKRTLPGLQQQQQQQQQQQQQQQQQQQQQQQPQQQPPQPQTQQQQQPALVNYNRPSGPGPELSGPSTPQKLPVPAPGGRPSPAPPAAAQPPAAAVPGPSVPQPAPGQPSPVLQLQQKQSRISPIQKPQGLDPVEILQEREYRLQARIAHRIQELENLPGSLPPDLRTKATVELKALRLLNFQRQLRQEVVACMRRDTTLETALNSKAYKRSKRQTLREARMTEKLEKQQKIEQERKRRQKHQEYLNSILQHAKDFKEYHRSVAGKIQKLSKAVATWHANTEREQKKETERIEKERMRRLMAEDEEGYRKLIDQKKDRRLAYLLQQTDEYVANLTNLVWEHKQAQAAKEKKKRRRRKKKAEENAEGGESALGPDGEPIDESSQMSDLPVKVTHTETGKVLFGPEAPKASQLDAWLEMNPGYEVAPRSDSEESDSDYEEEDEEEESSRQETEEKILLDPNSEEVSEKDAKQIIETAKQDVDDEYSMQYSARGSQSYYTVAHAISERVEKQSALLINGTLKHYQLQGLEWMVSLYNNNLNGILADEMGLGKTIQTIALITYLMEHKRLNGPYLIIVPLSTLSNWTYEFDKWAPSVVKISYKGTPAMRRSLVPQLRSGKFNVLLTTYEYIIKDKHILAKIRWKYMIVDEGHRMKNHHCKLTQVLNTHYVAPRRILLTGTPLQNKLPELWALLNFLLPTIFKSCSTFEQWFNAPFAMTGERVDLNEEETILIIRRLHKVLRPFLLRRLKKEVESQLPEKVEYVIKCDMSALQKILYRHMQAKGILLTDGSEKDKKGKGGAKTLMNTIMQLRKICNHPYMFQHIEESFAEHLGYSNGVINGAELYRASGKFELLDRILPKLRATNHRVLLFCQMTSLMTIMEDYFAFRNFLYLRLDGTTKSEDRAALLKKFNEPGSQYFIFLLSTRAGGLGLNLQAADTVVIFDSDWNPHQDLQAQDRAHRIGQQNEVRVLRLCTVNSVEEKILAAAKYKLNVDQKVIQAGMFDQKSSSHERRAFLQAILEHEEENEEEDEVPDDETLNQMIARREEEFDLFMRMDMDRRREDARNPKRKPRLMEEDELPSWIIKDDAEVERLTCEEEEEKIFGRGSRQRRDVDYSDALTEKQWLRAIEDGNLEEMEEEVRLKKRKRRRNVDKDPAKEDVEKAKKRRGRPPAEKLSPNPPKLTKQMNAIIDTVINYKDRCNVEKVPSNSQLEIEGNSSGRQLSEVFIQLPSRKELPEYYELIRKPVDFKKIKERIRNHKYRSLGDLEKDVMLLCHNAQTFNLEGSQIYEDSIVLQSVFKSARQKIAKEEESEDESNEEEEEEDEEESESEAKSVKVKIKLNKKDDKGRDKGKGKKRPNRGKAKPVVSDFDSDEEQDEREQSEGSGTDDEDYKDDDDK

Row | Compound | IC50 [nM]
35 | Cc1cc(C#Cc2cc(C(=O)Nc3cc(F)c(=O)n(CC(F)F)c3)sc2Cl)on1 [Compound 63c] | 33.3
36 | Cc1cnc(C#Cc2cc(C(=O)Nc3cc(F)c(=O)n(CC(F)F)c3)sc2Cl)s1 [Compound 70c] | 260
37 | N#Cc1ccc(C#Cc2cc(C(=O)Nc3cc(F)c(=O)n(CC(F)F)c3)sc2Cl)cc1 [Compound 43c] | 130
38 | N#Cc1cc(C#Cc2cc(C(=O)Nc3cc(F)c(=O)n(CC(F)F)c3)sc2Cl)ccn1 [Compound 151c] | 29.6
39 | O=C(Nc1cc(F)c(=O)n(CC(F)F)c1)c1cc(C#Cc2cccnn2)c(Cl)s1 [Compound 55c] | 77.8
40 | Cc1sc(C(=O)Nc2cc(F)c(=O)n(CC(F)F)c2)cc1C#CC1COC1 [Compound 92c] | 120
41 | NC(=O)c1nc(C#Cc2cc(C(=O)Nc3cc(F)c(=O)n(CC(F)F)c3)sc2Cl)cs1 [Compound 111c] | 10.5
42 | CN(C)Cc1ncc(C#Cc2cc(C(=O)Nc3cc(F)c(=O)n(CC(F)F)c3)sc2Cl)n1C [Compound 148c] | 146
43 | O=C1Cc2ccc(C#Cc3cc(C(=O)Nc4cc(F)c(=O)n(CC(F)F)c4)sc3Cl)cc2N1 [Compound 140c] | 34
44 | O=C1Cc2c(C#Cc3cc(C(=O)Nc4cc(F)c(=O)n(CC(F)F)c4)sc3Cl)cccc2N1 [Compound 142c] | 49.9
45 | O=C(Nc1cc(F)c(=O)n(CC(F)F)c1)c1cc(C#Cc2cn[nH]c2)c(Cl)s1 [Compound 83c] | 19.4
46 | O=C(Nc1cc(F)c(=O)n(CC(F)F)c1)c1cc(C#Cc2ccc3c(c2)C(=O)NC3)c(Cl)s1 [Compound 145c] | 81.7
47 | Cn1cnc(C#Cc2cc(C(=O)Nc3cc(F)c(=O)n(CC(F)F)c3)sc2Cl)c1 [Compound 60c] | 251
48 | O=C(Nc1cc(F)c(=O)n(CC(F)F)c1)c1cc(C#C[C@@H]2CCOC2)c(Cl)s1 [Compound 79c] | 56.8
49 | O=C(Nc1cc(F)c(=O)n(CC(F)F)c1)c1cc(C#Cc2ccc(Cl)cc2)c(Cl)s1 [Compound 35c] | 698
50 | CN(C)CCn1cc(C#Cc2cc(C(=O)Nc3cc(F)c(=O)n(CC(F)F)c3)sc2Cl)cn1 [Compound 123c] | 471
51 | CN(C)Cc1cc(C#Cc2cc(C(=O)Nc3cc(F)c(=O)n(CC(F)F)c3)sc2Cl)n(C)n1 [Compound 149c] | 8030

Each compound was assayed on A549 cells (assay: High-throughput proliferation (HTP) assay for A549 cells (CellTiter-Glo, 7 days)). Details: Homo sapiens, 168 h, read-out: A549 SMARCA2 IC50.
Type: cell-based
Summary of the method: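 Seven-day growth of A549 (62.5 cells/well, F12K with 10% HI-FBS, 37° C.) with compound, read by CellTiter-Glo ATP luminescence. Percent inhibition scaled between DMSO wells and 10 μM Doxorubicin wells, then fitted for EC50 and IC50.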

Row | Compound | IC50 [nM]
52 | Cc1cc(C#Cc2cc(C(=O)Nc3cc(F)c(=O)n(CC(F)F)c3)sc2Cl)on1 [Compound 63c] | 2290
53 | Cc1cnc(C#Cc2cc(C(=O)Nc3cc(F)c(=O)n(CC(F)F)c3)sc2Cl)s1 [Compound 70c] | 6250
54 | N#Cc1ccc(C#Cc2cc(C(=O)Nc3cc(F)c(=O)n(CC(F)F)c3)sc2Cl)cc1 [Compound 43c] | 2940
55 | N#Cc1cc(C#Cc2cc(C(=O)Nc3cc(F)c(=O)n(CC(F)F)c3)sc2Cl)ccn1 [Compound 151c] | 889
56 | O=C(Nc1cc(F)c(=O)n(CC(F)F)c1)c1cc(C#Cc2cccnn2)c(Cl)s1 [Compound 55c] | 3780
57 | Cc1sc(C(=O)Nc2cc(F)c(=O)n(CC(F)F)c2)cc1C#CC1COC1 [Compound 92c] | 2330
58 | NC(=O)c1nc(C#Cc2cc(C(=O)Nc3cc(F)c(=O)n(CC(F)F)c3)sc2Cl)cs1 [Compound 111c] | 1950
59 | CN(C)Cc1ncc(C#Cc2cc(C(=O)Nc3cc(F)c(=O)n(CC(F)F)c3)sc2Cl)n1C [Compound 148c] | 4250
60 | O=C1Cc2ccc(C#Cc3cc(C(=O)Nc4cc(F)c(=O)n(CC(F)F)c4)sc3Cl)cc2N1 [Compound 140c] | > 10000
61 | O=C1Cc2c(C#Cc3cc(C(=O)Nc4cc(F)c(=O)n(CC(F)F)c4)sc3Cl)cccc2N1 [Compound 142c] | 3210
62 | O=C(Nc1cc(F)c(=O)n(CC(F)F)c1)c1cc(C#Cc2cn[nH]c2)c(Cl)s1 [Compound 83c] | 3470
63 | O=C(Nc1cc(F)c(=O)n(CC(F)F)c1)c1cc(C#Cc2ccc3c(c2)C(=O)NC3)c(Cl)s1 [Compound 145c] | > 10000
64 | Cn1cnc(C#Cc2cc(C(=O)Nc3cc(F)c(=O)n(CC(F)F)c3)sc2Cl)c1 [Compound 60c] | > 10000
65 | O=C(Nc1cc(F)c(=O)n(CC(F)F)c1)c1cc(C#C[C@@H]2CCOC2)c(Cl)s1 [Compound 79c] | 1290
66 | O=C(Nc1cc(F)c(=O)n(CC(F)F)c1)c1cc(C#Cc2ccc(Cl)cc2)c(Cl)s1 [Compound 35c] | 3700
67 | CN(C)CCn1cc(C#Cc2cc(C(=O)Nc3cc(F)c(=O)n(CC(F)F)c3)sc2Cl)cn1 [Compound 123c] | 3980
68 | CN(C)Cc1cc(C#Cc2cc(C(=O)Nc3cc(F)c(=O)n(CC(F)F)c3)sc2Cl)n(C)n1 [Compound 149c] | > 10000
